Results: ChEMBL document CHEMBL1121792, “Quantitative structure-activity relationships of colchicines against P388 leukemia in mice” (J Med Chem, 1981)

Tested on: P388
Experiment: Compound was tested for antitumor activity against lymphocytic leukemia P388 cells in mice
Format: functional, Mus musculus
Details: not given

Structure (SMILES)	Log 1/C
COc1cc2c(c(OC)c1OC)-c1ccc(OC)c(=O)cc1[C@@H](N(C)C)CC2	4.03

Tested on: not listed separately
Experiment: physchem
Details: octanol/water
Description: Partition coefficient (logP)

Structure (SMILES)	logP
CN[C@H]1CCc2cc(OC)c(OC)c(OC)c2-c2ccc(OC)c(=O)cc21 [DEMECOLCINE]	1.53
COc1cc2c(c(OC)c1OC)-c1ccc(OC)c(=O)cc1[C@@H](N)CC2 [DEACETYLCOLCHICINE]	1.1
COc1ccc2c(c1OC)-c1ccc(OC)c(=O)cc1[C@@H](NC(C)=O)CC2	0.93
COc1cc2c(c(OC)c1OC)-c1ccc([S+](C)[O-])c(=O)cc1[C@@H](NC(C)=O)CC2 (stereo not given in full)	-0.53
COc1cc2c(c(OC)c1OC)-c1ccc(SC)c(=O)cc1[C@@H](N)CC2	1.73
COc1cc2c(c(OC)c1OC)-c1ccc(OC)c(=O)cc1[C@@H](NC(=O)CF)CC2	1.19
CN[C@H]1CCc2cc(OC)c(OC)c(OC)c2-c2ccc(SC)c(=O)cc21	2.22
COc1cc2c(c(OC)c1OC)-c1ccc(OC)c(=O)cc1[C@@H](NC(=O)c1ccccc1)CC2	2.94
COc1cc2c(c(OC)c1OC)-c1ccc(OC)c(=O)cc1[C@@H](N(C)C)CC2	2.07
COc1cc2c(c(OC)c1OC)-c1ccc(OC)c(=O)cc1[C@@H](NC(C)=O)CC2 [COLCHICINE]	1.03
CNc1ccc2c(cc1=O)[C@@H](NC(C)=O)CCc1cc(OC)c(OC)c(OC)c1-2	0.58
CCOC(=O)N[C@H]1CCc2cc(OC)c(OC)c(OC)c2-c2ccc(SC)c(=O)cc21	3.12
COc1cc2c(c(OC)c1OC)-c1ccc(SC)c(=O)cc1[C@@H](NC(=O)C(F)(F)F)CC2	2.99
COc1cc2c(c(OC)c1OC)-c1ccc(SC)c(=O)cc1[C@@H](NC(C)=O)CC2 [THIOCOLCHICINE]	1.66
COc1cc2c(c(OC)c1OC)-c1ccc(OC)c(=O)cc1[C@@H](NC=O)CC2	1.02

Results, then the molecule that gave them:

logP	Structure (SMILES)
1.25	COc1cc2c(c(OC)c1OC)-c1ccc(SC)c(=O)cc1[C@@H](NC1C(CO)OC(O)C(O)C1O)CC2 (stereo not given in full)
1.71	COc1cc2c(c(OC)c1OC)-c1ccc(OC)c(=O)cc1[C@@H](NC(=O)CCl)CC2
3.21	COc1cc2c(c(OC)c1OC)-c1ccc(SCc3ccccc3)c(=O)cc1[C@@H](NC(C)=O)CC2
2.34	COc1cc2c(c(OC)c1OC)-c1ccc(SC)c(=O)cc1[C@@H](NC(=O)CCl)CC2
2.96	COc1cc2c(c(OC)c1OC)-c1ccc(OC)c(=O)cc1[C@@H](NC(=O)c1ccc([N+](=O)[O-])cc1)CC2
4.61	COc1cc2c(c(OC)c1OC)-c1ccc(SC)c(=O)cc1[C@@H](NO[C@H]1[C@H](OC(C)=O)[C@@H](OC(C)=O)[C@H](OC(C)=O)O[C@@H]1COC(C)=O)CC2
1.5	COc1cc2c(c(OC)c1OC)-c1ccc(SC)c(=O)cc1[C@@H](NC(=O)CO)CC2
1.4	COc1cc2c(c(OC)c1OC)-c1ccc(SC)c(=O)cc1[C@@H](NC1COC(O)C(O)C1O)CC2 (stereo not given in full)
3.53	COc1cc2c(c(OC)c1OC)-c1ccc(SC)c(=O)cc1[C@@H](NC(=O)NCCCl)CC2
2.36	COc1cc2c(c(OC)c1OC)-c1ccc(OC)c(=O)cc1[C@@H](NC(=O)C(F)(F)F)CC2
-2.1	COC(=O)C(N)CCCC/N=c1\ccc2c(cc1O)[C@@H](NC(C)=O)CCc1cc(OC)c(OC)c(OC)c1-2 (stereo not given in full)
0.97	COc1cc2c(c(OC)c1OC)-c1ccc(S(=O)(=O)Cc3ccccc3)c(=O)cc1[C@@H](NC(C)=O)CC2
2.14	COc1cc2c(c(OC)c1OC)-c1cc/c(=N\Cc3ccccc3)c(O)cc1[C@@H](NC(C)=O)CC2
-0.58	COc1cc2c(c(OC)c1OC)-c1ccc(S(C)(=O)=O)c(=O)cc1[C@@H](NC(C)=O)CC2
